Results on 1 compound are retold here after US20080039444A1, “COMPOUNDS” (GLAXO GROUP LIMITED, priority 2006, published 2008).

Each structure is given as a SMILES string.

The Kb is the affinity of an antagonist, worked out from how it opposes an agonist.

The nature of data set [1]: CNS penetration (intravenous bolus or infusion at steady state, blood and brain levels). It counts as in vivo, rat. The following applies: male CD Sprague Dawley rats. The method, then:
(i) CNS penetration by bolus administration
Compounds are dosed intravenously at a nominal dose level of 1 mg/kg to male CD Sprague Dawley rats. Compounds are formulated in 5% DMSO/45% PEG200/50% water. Blood samples are taken under terminal anaesthesia with isoflurane at 5 min post-dose and the brains are also removed for assessment of brain penetration. Blood samples are taken directly into heparinised tubes. Blood samples are prepared for analysis using protein precipitation and brain samples are prepared using extraction of drug from brain by homogenisation and subsequent protein precipitation. The concentration of parent drug in blood and brain extracts is determined by quantitative LC-MS/MS analysis using compound-specific mass transitions.
(ii) CNS penetration following intravenous infusion at steady state
A loading dose of the compounds is given to male CD Sprague Dawley rats at a nominal dose level of 0.4 mg/kg. The compounds are then infused intravenously for 4 h at a nominal dose level of 0.1 mg/kg/h. Compounds are formulated in 2% DMSO/30% PEG200/68% water. Serial or terminal blood samples are taken at 0.5, 1.5, 2.5, 3, 3.5 and 4 h post dose. The final blood sample is collected under terminal anaesthesia with isoflurane and the brains are also removed for assessment of brain penetration. Blood samples are taken directly into heparinised tubes. Blood samples are prepared for analysis using protein precipitation and brain samples are prepared using extraction of drug from brain by homogenisation and subsequent protein precipitation. The concentration of parent drug in blood and brain extracts is determined by quantitative LC-MS/MS analysis using compound-specific mass transitions.

Data set [2] deals with T1, human H1 receptor (Homo sapiens, UniProt P35367).
T1 construct: expressed in transfected cells
The data set is described as follows: Histamine H1 functional antagonist assay (FLIPR): determination of antagonist pA2. It is filed as cell-based. On the procedure:
(§1) The human H1 receptor is cloned using known procedures described in the literature [Biochem. Biophys. Res. Commun., 201(2):894 (1994)]. Chinese hamster ovary (CHO) cells stably expressing the human H1 receptor are generated according to known procedures described in the literature [Br. J. Pharmacol., 117(6):1071 (1996)].
(§2) Histamine H1 functional antagonist assay: Determination of antagonist pA2 and duration
The histamine H1 receptor expressing CHO cells are seeded into non-coated black-walled clear bottom 96-well tissue culture plates as described above. Following overnight culture, growth medium is removed from each well, washed with 200 μl phosphate buffered saline (PBS) and is replaced with 50 μl loading dye (250 μM Brilliant Black, 1 μM Fluo-4 diluted in Tyrodes buffer+probenecid (145 mM NaCl, 2.5 mM KCl, 10 mM HEPES, 10 mM D-glucose, 1.2 mM MgCl2, 1.5 mM CaCl2, 2.5 mM probenecid, pH adjusted to 7.40 with NaOH 1.0 M)). Cells are incubated for 45 min at 37° C. The loading buffer is removed and the cells are washed as above, and 90 μl of Tyrodes buffer+probenecid is added to each well. 10 μl of test compound, diluted to the required concentration in Tyrodes buffer+probenecid (or 10 μl Tyrodes buffer+probenecid as a control) is added to each well and the plate is incubated for 30 min at 37° C., 5% CO2. The plates are then placed into a FLIPR™ (Molecular Devices, UK) to monitor cell fluorescence (λex=488 nm, λEM=540 nm) in the manner described in Sullivan et al., (In: Lambert DG (ed.), Calcium Signaling Protocols, New Jersey: Humana Press, 1999, 125-136) before and after the addition of 50 μl histamine over a concentration range of 1 mM-0.1 nM. The resultant concentration response curves are analysed by non-linear regression using a standard four parameter logistic equation to determine the histamine EC50, the concentration of histamine required to produce a response of 50% of the maximum response to histamine. The antagonist pA2 is calculated using the following standard equation: pA2=log(DR-1)- log[B] where DR=dose ratio, defined as EC50antagonist-treated/EC50control and [B]=concentration of antagonist.

The target of data set [3] is T1, human H1 receptor. The data set is described as follows: Histamine H1 functional antagonist assay: antagonist duration after washout. It counts as cell-based. The following applies: at one or more time points. The method, then:
as §1, §2
To determine the antagonist duration, cells are cultured overnight in non-coated black-walled clear bottom 96-well tissue culture plates, are washed with PBS and are incubated with a concentration of antagonist chosen to give an approximate DR in the range 30-300. Following the 30 min antagonist incubation period, the cells are washed two or three times with 200 μl of PBS and then 100 μl Tyrodes buffer is added to each well to initiate antagonist dissociation. Following incubation for predetermined times, typically 30-270 min at 37° C., the cells are then washed again with 200 μl PBS and are incubated with 100 μl Tyrodes buffer containing Brilliant Black, probenecid and Fluo-4 for 45 min at 37° C., as described above. After this period, the cells are challenged with histamine in the FLIPR™ as described above. The dose ratio at each time point is used to determine the fractional H1 receptor occupancy by the following equation: fractional receptor occupancy=(DR-1)/DR. The decrease in receptor occupancy over time approximates to a straight line and is analysed by linear regression. The slope of this straight line fit is used as an index of the dissociation rate of the antagonist. The dose ratios for antagonist treated cells and for antagonist treated and washed cells at each time point are used to calculate a relative dose ratio (rel DR) which is also used as an index of antagonist duration. Antagonists with long duration of action produce rel DR values close to 1, and antagonists with short duration of action produce rel DR values that approaches the dose ratio value obtained for antagonist treatment alone.

T1 sequence (P35367 whole entry): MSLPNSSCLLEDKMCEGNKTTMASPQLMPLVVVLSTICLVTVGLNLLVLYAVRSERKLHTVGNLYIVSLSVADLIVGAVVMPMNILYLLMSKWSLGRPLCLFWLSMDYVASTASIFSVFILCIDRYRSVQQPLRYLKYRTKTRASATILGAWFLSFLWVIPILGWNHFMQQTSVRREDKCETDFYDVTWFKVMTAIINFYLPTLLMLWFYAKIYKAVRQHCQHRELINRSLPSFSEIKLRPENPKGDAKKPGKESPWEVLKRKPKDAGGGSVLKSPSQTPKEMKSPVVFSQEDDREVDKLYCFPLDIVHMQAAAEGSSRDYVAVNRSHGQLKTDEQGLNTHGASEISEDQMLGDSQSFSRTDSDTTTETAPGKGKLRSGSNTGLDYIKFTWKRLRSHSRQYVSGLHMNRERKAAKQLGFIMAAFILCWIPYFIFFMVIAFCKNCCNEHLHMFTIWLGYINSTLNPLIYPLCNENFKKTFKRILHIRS

Turning to `O=c1c2ccccc2c(Cc2ccc(Cl)cc2)nn1C[C@H]1CCCN1CCCCc1ccc(OCCCN2CCCCCC2)cc1` [Example 24, 4-[(4-Chlorophenyl)methyl]-2-({(2R)-1-[4-(4-{[3-(hexahydro-1H-azepin-1-yl)propyl]oxy}phenyl)butyl]-2-pyrrolidinyl}methyl)-1(2H)-phthalazinone free base], the “CNS penetration compared with azelastine” value in data set [1] was “lower CNS penetration than azelastine”. The compound also had a Kb at human H1 receptor [2] of about 1.26 nM. The “duration of action compared with azelastine in the histamine H1 functional antagonist assay” value at human H1 receptor [3] is on record as “significantly longer duration of action than azelastine”.
